Assays:
[1] = system: β-catenin; test: Western blotting of β-catenin protein in HEK293 cells and stable lines RBC, CAT, RmBC; format: cell-based, human
Procedure: (§1) (A) Western blotting analysis of HEK293 cells transfected with a combination of expression vectors for LacZ (2 μg), V5-tagged β-catenin(4 μg), and Flag-tagged RXRα (2 μg) as indicated below the gels. […] RXRα protein was measured using an HRP-conjugated mouse monoclonal antibody against the Flag tag. (B) Western blotting analysis of stable cell line RBC that overexpresses both β-catenin and RXRα. […] (C) Western blotting analysis of stable cell line CAT that overexpresses only β-catenin. […] Endogenous and overexpressed β-catenin were detected using a rabbit polyclonal antibody as indicated by “Total” whereas overexpressed β-catenin was analyzed using a mouse monoclonal antibody against the V5 tag. Endogenous and overexpressed RXRα were detected by a rabbit polyclonal antibody against RXRα, whereas overexpressed RXRα was determined by an HRP-conjugated mouse monoclonal antibody against the Flag tag. (D) Western blotting analysis of HEK293 cells transfected with a fixed amount of β-catenin (4 μg) plus an increasing amount of RXRα as indicated at the top. […] (E) Western blotting analysis of HEK293, CV-1, and Hela cells transfected with 2 μg of RXRα and 4 μg of wild type or mutant β-catenin. α. […] (F) Northern blotting analysis of RBC cells using β-catenin as a probe.
FIG. 4 Receptor and ligand specificity in degradation of β-catenin by retinoid receptors. HEK293 cells transfected with expression vectors for β-catenin (4 μg) and RXRs (2 μg) or RARs (2 μg) and treated with ligands at concentrations indicated at the top of each gel. Protein levels were detected by Western blotting as shown in this figure. β-catenin and RARs were detected by HRP-conjugated antibodies against their V5 tag. RXRs were detected by HRP-conjugated antibodies against their Flag tag. […] In this experiment, the amount of expression vectors for RXRα and RARs used in transfection was 1 μg.
HEK293 cells were seeded at a density of […] per dish were seeded into 100-mm dishes and cultured overnight in DMEM containing 10% FBS. Cells were transfected with 1-4 μg of various cDNA or parental expression vectors (8 μg of DNA in total) using Lipofectamine®. Five hours after transfection, cells were fed with fresh culture media DMEM containing 10% charcoal-treated FBS with vehicle DMSO or retinoids prepared in DMSO. After a given time of treatment, cells were harvested and lysed in a buffer containing 1% Nonidet® P-40, 30 mM Tris-HCl (pH7.4), 0.5 mM EDTA (pH 8.0), 150 mM NaCl, 10% glycerol, 1 mM sodium orthovanadate, 40 mM NaF, 0.5 mM phenylmethylsulfonyl fluoride (PMSF) and a cocktail of protease inhibitors (Merck).
Total cell lysates were homogenized by passing through a QIAshredder® (Qiagen) and cleared from insoluble materials by centriftigation at 12,000 g. Protein concentration was determined using a Bradford total protein assay kit (Bio-Rad). Total cell lysates were electrophoresed using a 4-12% SDS-PAGE gradient gel and transferred to either nitrocellulose or PVDF filter membranes. The membranes were blocked with 10% non-fat milk reconstituted from dairy milk powder in phosphate-buffered saline (PBS) containing 0.1% Tween®-20 (PBST). The membranes were incubated with primary antibodies at room temperature for 2 hours or at 4° C. for overnight. After the removal of unbound antibodies, membranes were incubated with horseradish peroxidase-conjugated secondary antibodies for one hour at room temperature and washed five times with PBST.

[2] = system: β-catenin; test: Western blotting of β-catenin in CV-1 and Hela cells; format: cell-based; conditions: CV1 and Hela cells, 0.1 μM, 17 hours
[3] = system: β-catenin mRNA; test: Northern blotting of β-catenin mRNA in RBC cells; format: cell-based, human; conditions: RBC cells treated overnight (17 hours)
Procedure: as §1

[4] = molecular target: T1, RXRα and ΔNβ-catenin interaction (Homo sapiens, UniProt P19793); test: In vivo protein crosslinking and immunoprecipitation; format: cell-based; conditions: HEK293, 1 μM AGN 4204 or vehicle before DSP crosslinking
T1 sequence (P19793 1-462): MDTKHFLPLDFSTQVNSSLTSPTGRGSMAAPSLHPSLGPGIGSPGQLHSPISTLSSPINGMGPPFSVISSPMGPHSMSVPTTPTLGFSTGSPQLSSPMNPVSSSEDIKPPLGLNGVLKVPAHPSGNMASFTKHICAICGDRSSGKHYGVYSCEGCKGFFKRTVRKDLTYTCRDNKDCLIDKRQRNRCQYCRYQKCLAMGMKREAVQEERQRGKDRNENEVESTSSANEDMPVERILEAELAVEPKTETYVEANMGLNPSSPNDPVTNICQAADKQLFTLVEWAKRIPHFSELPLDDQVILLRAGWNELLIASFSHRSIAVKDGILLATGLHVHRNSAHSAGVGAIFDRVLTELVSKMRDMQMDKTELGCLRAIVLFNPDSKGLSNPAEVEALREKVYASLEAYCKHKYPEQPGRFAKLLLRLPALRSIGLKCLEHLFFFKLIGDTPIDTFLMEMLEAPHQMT
T1 sequence (P35222 51-781 partner): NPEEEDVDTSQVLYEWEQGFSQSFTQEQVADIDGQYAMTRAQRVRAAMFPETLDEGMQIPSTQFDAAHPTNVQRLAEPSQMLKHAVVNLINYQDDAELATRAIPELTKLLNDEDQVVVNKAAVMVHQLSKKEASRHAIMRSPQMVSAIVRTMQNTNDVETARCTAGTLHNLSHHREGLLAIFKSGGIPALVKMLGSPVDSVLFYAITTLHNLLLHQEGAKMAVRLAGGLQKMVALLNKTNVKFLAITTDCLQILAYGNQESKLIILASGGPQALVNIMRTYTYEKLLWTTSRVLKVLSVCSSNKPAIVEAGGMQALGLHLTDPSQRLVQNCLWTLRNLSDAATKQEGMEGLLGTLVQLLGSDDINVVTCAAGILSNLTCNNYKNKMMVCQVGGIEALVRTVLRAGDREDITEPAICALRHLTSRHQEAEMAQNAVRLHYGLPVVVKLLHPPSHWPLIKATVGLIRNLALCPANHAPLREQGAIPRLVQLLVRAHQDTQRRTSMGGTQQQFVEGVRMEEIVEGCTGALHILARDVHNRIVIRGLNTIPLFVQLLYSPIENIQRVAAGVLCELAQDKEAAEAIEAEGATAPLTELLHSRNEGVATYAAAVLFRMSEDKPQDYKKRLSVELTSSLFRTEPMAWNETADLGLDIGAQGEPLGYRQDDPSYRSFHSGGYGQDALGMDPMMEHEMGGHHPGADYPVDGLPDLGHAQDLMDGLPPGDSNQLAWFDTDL
Procedure: HEK293 cells were transfected with a combination of 8 μg of ΔNβ-catenin (C) and 4 μg of RXRα. […] Cell lysates were subjected to immunoprecipitation using antibodies against the Flag tag in RXRα. Crosslinked molecules in immunoprecipitates were dissociated by reduction with β-mercaptoethanol before Western blotting analysis using HRP-conjugated antibodies against the v5 tag in ΔNβ-catenin (Top panel).
HEK293 cells were cultured to about 80% confluence in 150-mm Biocoat poly-D-Lysine plates (VWR Cat#354550), and then transfected with expression vectors for ΔN-β-catenin, and RXRα using Lipofectamine® Transfection Reagent (Invitrogen). Cells were then cultured in high glucose DMEM medium containing 10% activated charcoal-extracted fetal bovine serum.
The reaction was quenched by adding Tris buffer at pH7.5 to a final concentration of 20 mM. […]
To determine whether RXRs and β-catenin interact with each other, HEK293 cells were transfected with expression vectors for RXRα and/or ΔNβ-catenin. […] After completion of the cross-linking reaction, cell extracts were prepared and analyzed by immunoprecipitation using antibodies against the FLAG epitope in an RXRα-FLAG fusion protein, followed by Western blotting analysis using antibodies against the V5 Tag in ΔNβ-catenin. […]

SMILES: CC(/C=C/[C@@H]1C[C@]1(C)c1ccc2c(c1)C(C)(C)CCC2(C)C)=C\C(=O)O [AGN 4204]
- β-catenin protein ([1]; CAT cells transfected with RXRα expression vector, 0.1 μM, 17 hours): significantly reduced
- β-catenin protein ([1]; CAT cells, low endogenous RXRα, 0.1 μM, 17 hours): did not cause a significant decrease of β-catenin
- β-catenin protein ([1]; HEK293, fixed β-catenin plus increasing amounts of RXRα vector, 0.1 μM, 17 hours): a proportional decrease in β-catenin
- intracellular β-catenin protein levels ([1]; HEK293, β-catenin alone overexpressed, 0.1 μM, 6 or 15 hours): no significant effects
- degradation of β-catenin ([1]; HEK293 co-expressing RXRα with RARα): RXR-ligand-dependent degradation
- amounts of β-catenin protein ([1]; HEK293 co-overexpressing β-catenin and RXR, 0.1 μM, 6 or 15 hours): a reduction in the amounts of β-catenin protein
- degradation of β-catenin ([1]; HEK293 overexpressing RARβ or RARγ): did not result in degradation of β-catenin
- concentration effective in inducing degradation of β-catenin ([1]; HEK293 transfected with β-catenin and RXRα, 17 hours): 1 nM
- degradation of β-catenin through RXRγ ([1]; HEK293 transfected with β-catenin and RXRγ): able to stimulated the degradation of β-catenin through RXRγ
- AGN 4204-induced β-catenin degradation mediated by RXRα deletion mutants ([1]; HEK293 with β-catenin and RXRα mutants, 0.1 μM, 17 hours): significantly reduced
- potency in inducing β-catenin degradation ([1]; HEK293 with β-catenin and RXRα, FIG. 4A): high potency
- time at which beginning of β-catenin degradation was observed ([1]; RBC cells, 0.1 μM): 6 h
- degradation of ΔNβ-catenin protein ([1]; transiently transfected HEK293 and stable line RmBC (ΔNβ-catenin and RXRα), 0.1 μM): degradation of αNβ-catenin was observed
- degradation of ΔNβ-catenin protein [2]: susceptible to RXR-mediated degradation
- β-catenin mRNA level [3]: no effects
- interaction between RXRα and ΔNβ-catenin (co-immunoprecipitation) [4]: ligand-independent

From patent publication US20040009921A1, “Methods and compositions for the treatment of cancer” (Allergan, Inc., priority 2002, published 2004)
